# From US8901118B2, “Compounds and methods for kinase modulation, and indications therefor” (Plexxikon Inc., priority 2010, dated 2014)
# Legend:
# TrkA kinase = TrkA kinase (Homo sapiens, UniProt P04629); experiment: TrkA kinase biochemical activity assay (AlphaScreen); conditions: 100 μM ATP; read-out: Biochemical Inhibition IC50 TrkA
# In short: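 Recombinant TrkA with 30 nM biotin-(E4Y)10 and 100 μM ATP in 25 mM Hepes pH 7.5, 10 mM MnCl2, 5% DMSO, 40 min at room temperature. Phosphorylation read by AlphaScreen (streptavidin donor, PY20 acceptor beads); IC50 from signal vs compound concentration. TrkC run similarly.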
# [1] = Relative solubility by turbidity in aqueous buffers (pH 1.5, 4.5, 6.8, 7.4); assay type: physicochemical; conditions: for turbidity threshold (L, M, H) 1.4: pH 1.5 (SGF); for turbidity threshold (L, M, H) 4.5: pH 4.5 (SIF); for turbidity threshold (L, M, H) 6.8: pH 6.8 (SIF); for turbidity threshold (L, M, H) 7.4: pH 7.4 (HEPES)
# In short: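 Twofold DMSO dilutions of a 25 mM stock were spiked into SGF (0.5M NaCl, pH 1.5), SIF (0.05M NaH2PO4, pH 4.5 and 6.8) or HEPES buffer (10 mM HEPES, 150 mM NaCl, pH 7.4). Absorbance was read at 490, 535 and 650 nm. The endpoint is the concentration crossing O.D. 0.01, averaged across wavelengths.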
# Sequence of TrkA kinase (P04629 33-796): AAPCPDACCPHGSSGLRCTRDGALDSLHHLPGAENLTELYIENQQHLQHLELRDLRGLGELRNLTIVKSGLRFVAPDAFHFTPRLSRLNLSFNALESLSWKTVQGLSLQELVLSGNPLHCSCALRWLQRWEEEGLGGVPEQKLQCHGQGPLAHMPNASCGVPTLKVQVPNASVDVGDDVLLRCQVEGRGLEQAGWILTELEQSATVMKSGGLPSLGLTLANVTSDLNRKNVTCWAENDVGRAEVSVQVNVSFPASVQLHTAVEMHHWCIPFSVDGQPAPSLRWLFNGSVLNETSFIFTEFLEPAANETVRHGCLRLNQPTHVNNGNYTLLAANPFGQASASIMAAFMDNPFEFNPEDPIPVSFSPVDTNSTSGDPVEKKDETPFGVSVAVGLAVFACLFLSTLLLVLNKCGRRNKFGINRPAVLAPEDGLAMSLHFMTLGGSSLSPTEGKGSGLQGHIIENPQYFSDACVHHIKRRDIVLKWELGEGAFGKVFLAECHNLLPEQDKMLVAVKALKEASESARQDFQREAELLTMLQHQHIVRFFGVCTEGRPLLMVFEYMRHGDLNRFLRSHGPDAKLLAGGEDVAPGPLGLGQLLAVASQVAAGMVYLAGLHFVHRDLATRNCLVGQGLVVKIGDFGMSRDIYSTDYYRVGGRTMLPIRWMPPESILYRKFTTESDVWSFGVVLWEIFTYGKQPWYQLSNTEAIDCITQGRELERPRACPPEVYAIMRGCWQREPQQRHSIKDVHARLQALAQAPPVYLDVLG
IC50 (TrkA kinase) [nM],Compound,"turbidity threshold (L, M, H) 1.4 [1]","turbidity threshold (L, M, H) 4.5 [1]","turbidity threshold (L, M, H) 6.8 [1]","turbidity threshold (L, M, H) 7.4 [1]"
< 10,"CCCCNc1ncnc2[nH]cc(C(=O)c3ccc(Nc4ccc(OC)nc4)nc3F)c12 [Compound P-4080, [4-(butylamino)-7H-pyrrolo[2,3-d]pyrimidin-5-yl]-[2-fluoro-6-[(6-methoxy-3-pyridyl)amino]-3-pyridyl]methanone]",M (moderate solubility if the threshold concentration is 31.3 μM to 250 μM),M (moderate solubility if the threshold concentration is 31.3 μM to 250 μM),H (high solubility if the threshold concentration is >250 μm),M (moderate solubility if the threshold concentration is 31.3 μM to 250 μM)
< 10,"CCc1ccc(Nc2ccc(C(=O)c3c[nH]c4ncnc(NC5CCOCC5)c34)c(F)n2)cn1 [Compound P-4116, [6-[(6-ethyl-3-pyridyl)amino]-2-fluoro-3-pyridyl]-[4-(tetrahydropyran-4-ylamino)-7H-pyrrolo[2,3-d]pyrimidin-5-yl]methanone]",H (high solubility if the threshold concentration is >250 μm),M (moderate solubility if the threshold concentration is 31.3 μM to 250 μM),M (moderate solubility if the threshold concentration is 31.3 μM to 250 μM),M (moderate solubility if the threshold concentration is 31.3 μM to 250 μM)
< 10,"CNc1ncnc2[nH]cc(C(=O)c3ccc(Nc4ccc(C)nc4)nc3F)c12 [Compound P-4115, [2-fluoro-6-[(6-methyl-3-pyridyl)amino]-3-pyridyl]-[4-(methylamino)-7H-pyrrolo[2,3-d]pyrimidin-5-yl]methanone]",H (high solubility if the threshold concentration is >250 μm),M (moderate solubility if the threshold concentration is 31.3 μM to 250 μM),M (moderate solubility if the threshold concentration is 31.3 μM to 250 μM),M (moderate solubility if the threshold concentration is 31.3 μM to 250 μM)
< 1000,"CNc1ncnc2[nH]cc(C(=O)c3ccc(NC4CCCCC4)nc3Cl)c12 [Compound P-4110, [2-chloro-6-(cyclohexylamino)-3-pyridyl]-[4-(methylamino)-7H-pyrrolo[2,3-d]pyrimidin-5-yl]methanone]",M (moderate solubility if the threshold concentration is 31.3 μM to 250 μM),L (low solubility if the threshold concentration is <31.3 μM),L (low solubility if the threshold concentration is <31.3 μM),L (low solubility if the threshold concentration is <31.3 μM)
< 10,"COc1ccc(Nc2ccc(C(=O)c3c[nH]c4ncnc(NC5CCC5)c34)c(F)n2)cn1 [Compound P-4076, [4-(cyclobutylamino)-7H-pyrrolo[2,3-d]pyrimidin-5-yl]-[2-fluoro-6-[(6-methoxy-3-pyridyl)amino]-3-pyridyl]methanone]",M (moderate solubility if the threshold concentration is 31.3 μM to 250 μM),M (moderate solubility if the threshold concentration is 31.3 μM to 250 μM),M (moderate solubility if the threshold concentration is 31.3 μM to 250 μM),L (low solubility if the threshold concentration is <31.3 μM)
< 10,"CCc1ccc(Nc2ccc(C(=O)c3c[nH]c4ncnc(NC)c34)c(F)n2)cn1 [Compound P-4124, [6-[(6-ethyl-3-pyridyl)amino]-2-fluoro-3-pyridyl]-[4-(methylamino)-7H-pyrrolo[2,3-d]pyrimidin-5-yl]methanone]",M (moderate solubility if the threshold concentration is 31.3 μM to 250 μM),L (low solubility if the threshold concentration is <31.3 μM),L (low solubility if the threshold concentration is <31.3 μM),M (moderate solubility if the threshold concentration is 31.3 μM to 250 μM)
< 10,"CCC(CC)Nc1ncnc2[nH]cc(C(=O)c3ccc(Nc4ccc(OC)nc4)nc3F)c12 [Compound P-4077, [4-(1-ethylpropylamino)-7H-pyrrolo[2,3-d]pyrimidin-5-yl]-[2-fluoro-6-[(6-methoxy-3-pyridyl)amino]-3-pyridyl]methanone]",M (moderate solubility if the threshold concentration is 31.3 μM to 250 μM),L (low solubility if the threshold concentration is <31.3 μM),L (low solubility if the threshold concentration is <31.3 μM),L (low solubility if the threshold concentration is <31.3 μM)
< 10,"CCNc1ncnc2[nH]cc(C(=O)c3ccc(Nc4ccc(CC)nc4)nc3F)c12 [Compound P-4123, [4-(ethylamino)-7H-pyrrolo[2,3-d]pyrimidin-5-yl]-[6-[(6-ethyl-3-pyridyl)amino]-2-fluoro-3-pyridyl]methanone]",H (high solubility if the threshold concentration is >250 μm),L (low solubility if the threshold concentration is <31.3 μM),L (low solubility if the threshold concentration is <31.3 μM),L (low solubility if the threshold concentration is <31.3 μM)
< 10,"COc1ccc(Nc2ccc(C(=O)c3c[nH]c4ncnc(NCc5ccc(C(F)(F)F)nc5)c34)c(F)n2)cn1 [Compound P-4071, [2-fluoro-6-[(6-methoxy-3-pyridyl)amino]-3-pyridyl]-[4-[[6-(trifluoromethyl)-3-pyridyl]methylamino]-7H-pyrrolo[2,3-d]pyrimidin-5-yl]methanone]",M (moderate solubility if the threshold concentration is 31.3 μM to 250 μM),M (moderate solubility if the threshold concentration is 31.3 μM to 250 μM),M (moderate solubility if the threshold concentration is 31.3 μM to 250 μM),M (moderate solubility if the threshold concentration is 31.3 μM to 250 μM)
< 10,"COc1ccc(Nc2ccc(C(=O)c3c[nH]c4ncnc(NCC5CC5)c34)c(F)n2)cn1 [Compound P-4067, [4-(cyclopropylmethylamino)-7H-pyrrolo[2,3-d]pyrimidin-5-yl]-[2-fluoro-6-[(6-methoxy-3-pyridyl)amino]-3-pyridyl]methanone]",H (high solubility if the threshold concentration is >250 μm),M (moderate solubility if the threshold concentration is 31.3 μM to 250 μM),M (moderate solubility if the threshold concentration is 31.3 μM to 250 μM),M (moderate solubility if the threshold concentration is 31.3 μM to 250 μM)
< 100,"O=C(c1ccc(NC2CCC(F)(F)CC2)nc1Cl)c1c[nH]c2ncnc(NC3CC3)c12 [Compound P-4059, [2-chloro-6-[(4,4-difluorocyclohexyl)amino]-3-pyridyl]-[4-(cyclopropylamino)-7H-pyrrolo[2,3-d]pyrimidin-5-yl]methanone]",M (moderate solubility if the threshold concentration is 31.3 μM to 250 μM),L (low solubility if the threshold concentration is <31.3 μM),L (low solubility if the threshold concentration is <31.3 μM),L (low solubility if the threshold concentration is <31.3 μM)
